Laboratory results reported in patent US9745321B2, “Fused pyrimidine compound, intermediate, preparation method therefor, and composition and application thereof” (SHANGHAI YINGLI PHARMACEUTICAL CO., LTD, priority 2013, dated 2017).

Tests used:
PI3Kδ = PI3Kδ (Homo sapiens (Human), UniProt O00329); assay: PI3Kδ enzyme activity inhibition IC50 evaluation assay; assay type: biochemical; settings: luminescence, 25 μM ATP, 50 μM PIP2, 2 hrs room temperature
Description: (§1) PI3Kα, PI3Kδ, PI3Kβ and PI3Kγ Enzyme Activity Inhibition IC50 Evaluation Assay
• 1. Buffer preparation: 50 mM HEPES, pH 7.5, 3 mM MgCl2, 1 mM EGTA, 100 mM NaCl, 0.03% CHAPS. • 2. Compound was formulated in 100% DMSO in a concentration gradient, and added to a 384-well plate to a final DMSO concentration of 1%. • 3. PI3Kα, PI3Kδ, PI3Kβ and PI3Kγ enzymes were diluted to an optimum concentration with the following buffer: 50 mM HEPES, pH 7.5, 3 mM MgCl2, 1 mM EGTA, 100 mM NaCl, 0.03% CHAPS, 2 mM DTT, and transferred to a 384-well plate and incubated with the compound for a certain time. • 4. […] For PI3Kβ and PI3Kγ, it was still necessary to further add 10 μL ADP-Glo Detection Reagent, and then equilibrated at room temperature for 30 minutes. • 5. Read Luminescense with FlexStation, and calculate the inhibition rate as the average of two tests.

PI3Kα = PI3Kα (Homo sapiens (Human), UniProt P42336); assay: PI3Kα enzyme activity inhibition IC50 evaluation assay; assay type: biochemical; settings: ratio PI3Kα vs PI3Kδ
Sequence of PI3Kα (P42336 whole entry): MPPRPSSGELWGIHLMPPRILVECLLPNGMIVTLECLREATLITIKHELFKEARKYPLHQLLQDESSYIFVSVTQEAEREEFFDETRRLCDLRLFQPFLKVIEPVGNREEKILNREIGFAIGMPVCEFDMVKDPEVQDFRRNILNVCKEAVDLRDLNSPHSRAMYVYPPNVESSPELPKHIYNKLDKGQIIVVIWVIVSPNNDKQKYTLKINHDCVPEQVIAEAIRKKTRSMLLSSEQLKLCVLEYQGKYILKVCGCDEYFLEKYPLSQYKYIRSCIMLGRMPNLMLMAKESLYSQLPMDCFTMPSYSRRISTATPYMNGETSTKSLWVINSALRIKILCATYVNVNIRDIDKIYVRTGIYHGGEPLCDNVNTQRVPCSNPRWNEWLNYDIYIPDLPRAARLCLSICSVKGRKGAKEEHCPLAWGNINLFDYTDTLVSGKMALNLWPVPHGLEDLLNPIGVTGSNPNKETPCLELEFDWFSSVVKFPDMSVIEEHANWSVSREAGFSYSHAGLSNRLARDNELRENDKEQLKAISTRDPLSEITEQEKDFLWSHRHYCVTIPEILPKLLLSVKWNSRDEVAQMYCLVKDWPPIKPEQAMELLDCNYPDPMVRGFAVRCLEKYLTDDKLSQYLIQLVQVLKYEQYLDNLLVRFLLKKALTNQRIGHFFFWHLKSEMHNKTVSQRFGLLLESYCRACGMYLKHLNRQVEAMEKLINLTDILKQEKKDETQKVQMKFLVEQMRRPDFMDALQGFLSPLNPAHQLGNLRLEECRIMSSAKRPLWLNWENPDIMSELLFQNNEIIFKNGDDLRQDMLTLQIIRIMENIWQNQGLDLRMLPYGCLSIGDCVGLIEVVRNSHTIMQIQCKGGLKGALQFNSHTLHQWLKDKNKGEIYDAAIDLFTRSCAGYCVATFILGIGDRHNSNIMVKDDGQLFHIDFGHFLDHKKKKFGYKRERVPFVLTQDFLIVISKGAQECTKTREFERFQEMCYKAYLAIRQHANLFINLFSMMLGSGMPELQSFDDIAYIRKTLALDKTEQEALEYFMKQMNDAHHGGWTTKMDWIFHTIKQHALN
Sequence of PI3Kα (P27986 whole entry partner): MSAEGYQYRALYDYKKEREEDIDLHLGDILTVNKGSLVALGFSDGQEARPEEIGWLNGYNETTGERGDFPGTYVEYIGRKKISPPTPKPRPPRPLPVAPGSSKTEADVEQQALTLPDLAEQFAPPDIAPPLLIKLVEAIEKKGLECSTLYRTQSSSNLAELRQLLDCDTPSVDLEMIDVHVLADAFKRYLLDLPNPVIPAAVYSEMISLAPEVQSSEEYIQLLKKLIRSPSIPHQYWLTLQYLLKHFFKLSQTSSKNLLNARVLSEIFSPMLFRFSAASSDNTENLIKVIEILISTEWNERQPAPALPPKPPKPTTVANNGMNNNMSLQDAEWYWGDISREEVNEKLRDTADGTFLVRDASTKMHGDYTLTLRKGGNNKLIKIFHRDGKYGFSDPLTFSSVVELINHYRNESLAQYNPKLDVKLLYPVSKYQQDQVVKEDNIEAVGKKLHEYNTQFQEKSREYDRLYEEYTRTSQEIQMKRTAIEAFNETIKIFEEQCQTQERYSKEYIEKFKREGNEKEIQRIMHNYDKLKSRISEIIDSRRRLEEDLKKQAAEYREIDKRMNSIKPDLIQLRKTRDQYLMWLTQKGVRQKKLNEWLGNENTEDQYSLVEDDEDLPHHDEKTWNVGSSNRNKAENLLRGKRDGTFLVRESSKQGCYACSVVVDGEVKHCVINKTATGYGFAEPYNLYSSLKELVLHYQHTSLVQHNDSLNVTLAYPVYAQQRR
Description: as §1
• 1. Buffer preparation: 50 mM HEPES, pH 7.5, 3 mM MgCl2, 1 mM EGTA, 100 mM NaCl, 0.03% CHAPS. • 2. Compound was formulated in 100% DMSO in a concentration gradient, and added to a 384-well plate to a final DMSO concentration of 1%. • 3. PI3Kα, PI3Kδ, PI3Kβ and PI3Kγ enzymes were diluted to an optimum concentration with the following buffer: 50 mM HEPES, pH 7.5, 3 mM MgCl2, 1 mM EGTA, 100 mM NaCl, 0.03% CHAPS, 2 mM DTT, and transferred to a 384-well plate and incubated with the compound for a certain time. • 4. Substrate was diluted to an optimum concentration with the following buffer: 50 mM HEPES, pH 7.5, 3 mM MgCl2, 1 mM EGTA, 100 mM NaCl, 0.03% CHAPS, 2 mM DTT, 50 μM PIP2, 25 μM ATP; then added to a 384-well plate to initiate the reaction, and for PI3Kα, PI3Kβ and PI3Kγ at room temperature reacted for 1 hr, for PI3Kδ at room temperature reacted for 2 hrs. For PI3Kβ and PI3Kγ, it was still necessary to further add 10 μL ADP-Glo Detection Reagent, and then equilibrated at room temperature for 30 minutes. • 5. Read Luminescense with FlexStation, and calculate the inhibition rate as the average of two tests.

Sequence of PI3Kδ (O00329 whole entry): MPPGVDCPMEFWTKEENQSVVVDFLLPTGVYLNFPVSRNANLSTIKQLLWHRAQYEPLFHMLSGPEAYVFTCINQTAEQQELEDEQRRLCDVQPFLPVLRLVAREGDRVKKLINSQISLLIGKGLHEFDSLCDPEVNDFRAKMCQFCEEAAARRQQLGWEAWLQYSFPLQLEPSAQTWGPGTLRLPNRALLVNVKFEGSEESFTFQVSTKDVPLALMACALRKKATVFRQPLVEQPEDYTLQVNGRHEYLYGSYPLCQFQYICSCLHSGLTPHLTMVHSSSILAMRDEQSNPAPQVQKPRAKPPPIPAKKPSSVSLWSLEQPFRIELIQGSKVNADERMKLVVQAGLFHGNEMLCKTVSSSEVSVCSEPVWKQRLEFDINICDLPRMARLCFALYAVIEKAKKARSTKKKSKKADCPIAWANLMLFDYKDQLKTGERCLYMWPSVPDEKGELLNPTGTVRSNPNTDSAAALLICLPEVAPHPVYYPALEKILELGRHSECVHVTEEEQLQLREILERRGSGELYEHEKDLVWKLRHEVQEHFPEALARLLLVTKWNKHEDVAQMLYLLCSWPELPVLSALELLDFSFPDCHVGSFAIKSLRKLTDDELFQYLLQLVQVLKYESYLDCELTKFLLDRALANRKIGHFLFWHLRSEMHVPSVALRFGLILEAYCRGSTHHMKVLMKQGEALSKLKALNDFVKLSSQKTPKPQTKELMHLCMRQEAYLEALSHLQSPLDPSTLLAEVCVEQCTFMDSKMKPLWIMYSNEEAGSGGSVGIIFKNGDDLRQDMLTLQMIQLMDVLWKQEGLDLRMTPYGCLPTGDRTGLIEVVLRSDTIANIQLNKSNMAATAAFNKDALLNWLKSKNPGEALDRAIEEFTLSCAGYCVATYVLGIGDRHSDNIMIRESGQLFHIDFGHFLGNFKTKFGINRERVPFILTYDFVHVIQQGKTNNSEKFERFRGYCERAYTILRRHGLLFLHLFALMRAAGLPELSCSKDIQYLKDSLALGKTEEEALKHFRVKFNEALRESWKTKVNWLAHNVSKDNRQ
Sequence of PI3Kδ (P27986 whole entry partner): as the sequence (P27986 whole entry partner) above

COc1ncc(-c2nc(N3CCOCC3)nc3c(CN4CCN(C)CC4)csc23)cc1NS(=O)(=O)c1ccc(F)cc1F [Compound 68]
IC50 (PI3Kδ): 71 nM
α/δ selectivity (PI3Kα): 19

COc1ncc(-c2nc(N3CCOCC3)nc3c(CN4CCN(C)CC4)csc23)cc1NS(=O)(=O)C1CC1 [Compound 69]
IC50 (PI3Kδ): 31 nM
α/δ selectivity (PI3Kα): 79

CCS(=O)(=O)Nc1cc(-c2nc(N3CCOCC3)nc3c(CN4CCN(C)CC4)csc23)cnc1OC [Compound 70]
IC50 (PI3Kδ): 23 nM
α/δ selectivity (PI3Kα): 87

COc1ncc(-c2nc(N3CCOCC3)nc3c(CN4CCN(C)CC4)csc23)cc1NS(=O)(=O)N(C)C [Compound 72]
IC50 (PI3Kδ): 60 nM
α/δ selectivity (PI3Kα): 29

COc1ncc(-c2nc(N3CCOCC3)nc3c(CN4CCN(C(=O)[C@@H](C)O)CC4)c(C)sc23)cc1NS(C)(=O)=O [Compound 73]
IC50 (PI3Kδ): 4.4 nM
α/δ selectivity (PI3Kα): 18

COc1ncc(-c2nc(N3CCOCC3)nc3c(CN4CCN(C(=O)[C@H](C)O)CC4)c(C)sc23)cc1NS(C)(=O)=O [Compound 74]
IC50 (PI3Kδ): 4.4 nM
α/δ selectivity (PI3Kα): 13

CN1CCN(Cc2csc3c(-c4cncc(NS(C)(=O)=O)c4)nc(N4CCOCC4)nc23)CC1 [Compound 75]
IC50 (PI3Kδ): 31 nM
α/δ selectivity (PI3Kα): 19

CCNC(=O)C1CCN(Cc2csc3c(-c4cnc(OC)c(NS(C)(=O)=O)c4)nc(N4CCOCC4)nc23)CC1 [Compound 76]
IC50 (PI3Kδ): 7.3 nM
α/δ selectivity (PI3Kα): 60

COc1ncc(-c2nc(N3CCOCC3)nc3c(CN4CCN(C5CC(C)OC(C)C5)CC4)csc23)cc1NS(C)(=O)=O (centres unmarked) [Compound 77]
IC50 (PI3Kδ): 7.1 nM
α/δ selectivity (PI3Kα): 52

COc1ncc(-c2nc(N3CCOCC3)nc3c(CN4CCC(C(C)(C)F)CC4)c(C)sc23)cc1NS(=O)(=O)C1CC1 [Compound 80]
IC50 (PI3Kδ): 39 nM
α/δ selectivity (PI3Kα): >256

CNC1CCN(Cc2c(C)sc3c(-c4cnc(OC)c(NS(C)(=O)=O)c4)nc(N4CCOCC4)nc23)CC1 [Compound 92]
IC50 (PI3Kδ): 71 nM
α/δ selectivity (PI3Kα): 42

COc1ncc(-c2nc(N3CCOCC3)nc3c(CN4CCC(N(C)C)CC4)c(C)sc23)cc1NS(C)(=O)=O [Compound 93]
IC50 (PI3Kδ): 10 nM
α/δ selectivity (PI3Kα): 82

COc1ncc(-c2nc(N3CCOCC3)nc3c(CN(C)C)c(C)sc23)cc1NS(C)(=O)=O [Compound 94]
IC50 (PI3Kδ): 32 nM
α/δ selectivity (PI3Kα): 31

COc1ncc(-c2nc(N3CCOCC3)nc3c(CN4CCNCC4)c(C)sc23)cc1NS(C)(=O)=O [Compound 96]
IC50 (PI3Kδ): 31 nM
α/δ selectivity (PI3Kα): 64

COc1ncc(-c2nc(N3CCOCC3)nc3cc(C)sc23)cc1NS(C)(=O)=O [Compound 97]
IC50 (PI3Kδ): 190 nM
α/δ selectivity (PI3Kα): 10

COc1ncc(-c2nc(N3CCOCC3)nc3c(CN4CCOCC4)c(C)sc23)cc1NS(C)(=O)=O [Compound 98]
IC50 (PI3Kδ): 12 nM
α/δ selectivity (PI3Kα): 30

COc1ncc(-c2nc(N3CCOCC3)nc3c(CN4CCC(F)CC4)c(C)sc23)cc1NS(C)(=O)=O [Compound 105]
IC50 (PI3Kδ): 31 nM
α/δ selectivity (PI3Kα): 77

COc1ncc(-c2nc(N3CCOCC3)nc3c(CN4CCC(=O)CC4)c(C)sc23)cc1NS(C)(=O)=O [Compound 107]
IC50 (PI3Kδ): 11 nM
α/δ selectivity (PI3Kα): 45

COC(=O)C1CCN(Cc2c(C)sc3c(-c4cnc(OC)c(NS(C)(=O)=O)c4)nc(N4CCOCC4)nc23)CC1 [Compound 111]
IC50 (PI3Kδ): 6.5 nM
α/δ selectivity (PI3Kα): 301

COc1ncc(-c2nc(N3CCOCC3)nc3c(CN4CCS(=O)(=O)CC4)c(C)sc23)cc1NS(C)(=O)=O [Compound 113]
IC50 (PI3Kδ): 6.6 nM
α/δ selectivity (PI3Kα): 27

COC(=O)N1CCN(Cc2c(C)sc3c(-c4cnc(OC)c(NS(C)(=O)=O)c4)nc(N4CCOCC4)nc23)CC1 [Compound 114]
IC50 (PI3Kδ): 5 nM
α/δ selectivity (PI3Kα): 44

COc1ncc(-c2nc(N3CCOCC3)nc3c(CN4CCC5(CC4)COC5)c(C)sc23)cc1NS(C)(=O)=O [Compound 115]
IC50 (PI3Kδ): 13 nM
α/δ selectivity (PI3Kα): 67

COc1ncc(-c2nc(N3CCOCC3)nc3c(CN4CCn5cnnc5C4)c(C)sc23)cc1NS(C)(=O)=O [Compound 116]
IC50 (PI3Kδ): 4.3 nM
α/δ selectivity (PI3Kα): 57

COc1ncc(-c2nc(N3CCOCC3)nc3c(CN4CCC(CO)CC4)c(C)sc23)cc1NS(C)(=O)=O [Compound 117]
IC50 (PI3Kδ): 7.2 nM
α/δ selectivity (PI3Kα): 213

COc1ncc(-c2nc(N3CCOCC3)nc3c(CN4CCC(C(C)(C)O)CC4)c(C)sc23)cc1NS(=O)(=O)C(F)(F)F [Compound 118]
IC50 (PI3Kδ): 2.6 nM
α/δ selectivity (PI3Kα): 92

COc1ncc(-c2nc(N3CCOCC3)nc3c(CN4CCN(C(C)(C)CO)CC4)c(C)sc23)cc1NS(C)(=O)=O [Compound 119]
IC50 (PI3Kδ): 5 nM
α/δ selectivity (PI3Kα): 84

Cc1sc2c(-c3cnc(Cl)c(NS(C)(=O)=O)c3)nc(N3CCOCC3)nc2c1CN1CCC(C(C)(C)O)CC1 [Compound 120]
IC50 (PI3Kδ): 5 nM
α/δ selectivity (PI3Kα): 24

CCN(CC)C1CN(Cc2c(C)sc3c(-c4cnc(OC)c(NS(C)(=O)=O)c4)nc(N4CCOCC4)nc23)C1 [Compound 122]
IC50 (PI3Kδ): 9 nM
α/δ selectivity (PI3Kα): 172

COc1ncc(-c2nc(N3CCOCC3)nc3c(CN4CCC(N5CCCC5)C(F)(F)C4)c(C)sc23)cc1NS(C)(=O)=O (centres unmarked) [Compound 123]
IC50 (PI3Kδ): 6.8 nM
α/δ selectivity (PI3Kα): 175

COc1ncc(-c2nc(N3CCOCC3)nc3c(CN4CCC(N5CCC[C@H]5C(F)(F)F)CC4)c(C)sc23)cc1NS(C)(=O)=O [Compound 124]
IC50 (PI3Kδ): 3.1 nM
α/δ selectivity (PI3Kα): 430

COc1ncc(-c2nc(N3CCOCC3)nc3c(CN4CCC(N5CCC[C@H]5C)CC4)c(C)sc23)cc1NS(C)(=O)=O [Compound 125]
IC50 (PI3Kδ): 2.6 nM
α/δ selectivity (PI3Kα): 239

COc1ncc(-c2nc(N3CCOCC3)nc3c(CN4CCC(N5CCC(F)CC5)CC4)c(C)sc23)cc1NS(C)(=O)=O [Compound 128]
IC50 (PI3Kδ): 6 nM
α/δ selectivity (PI3Kα): 223

COc1ncc(-c2nc(N3CCOCC3)nc3c(CN4CC[C@H](N5CCCC5)C4)c(C)sc23)cc1NS(C)(=O)=O [Compound 129]
IC50 (PI3Kδ): 19 nM
α/δ selectivity (PI3Kα): 100

COc1ncc(-c2nc(N3CCOCC3)nc3c(CN4CC[C@@H](N5CCCC5)C4)c(C)sc23)cc1NS(C)(=O)=O [Compound 130]
IC50 (PI3Kδ): 6.7 nM
α/δ selectivity (PI3Kα): 273

COc1ncc(-c2nc(N3CCOCC3)nc3c(CN4CCC(C5CC5)CC4)c(C)sc23)cc1NS(C)(=O)=O [Compound 131]
IC50 (PI3Kδ): 6.2 nM
α/δ selectivity (PI3Kα): 627

COc1ncc(-c2nc(N3CCOCC3)nc3c(CN4CCC(N5CC=CC5)CC4)c(C)sc23)cc1NS(C)(=O)=O [Compound 132]
IC50 (PI3Kδ): 10 nM
α/δ selectivity (PI3Kα): 35

COc1ncc(-c2nc(N3CCOCC3)nc3c(CN4CC[C@@H](N5CCC[C@H]5C)C4)c(C)sc23)cc1NS(C)(=O)=O [Compound 133]
IC50 (PI3Kδ): 7.7 nM
α/δ selectivity (PI3Kα): 185

COc1ncc(-c2nc(N3CCOCC3)nc3c(CN4CC[C@@H](N5CCC[C@@H]5C)C4)c(C)sc23)cc1NS(C)(=O)=O [Compound 134]
IC50 (PI3Kδ): 4 nM
α/δ selectivity (PI3Kα): 188

COc1ncc(-c2nc(N3CCOCC3)nc3c(CCN4CCCCC4)c(C)sc23)cc1NS(C)(=O)=O [Compound 135]
IC50 (PI3Kδ): 6.3 nM
α/δ selectivity (PI3Kα): 226

C=C1CCN(Cc2c(C)sc3c(-c4cnc(OC)c(NS(C)(=O)=O)c4)nc(N4CCOCC4)nc23)CC1 [Compound 136]
IC50 (PI3Kδ): 7.8 nM
α/δ selectivity (PI3Kα): 268
